This note sets out measurements from US9533983B2, “Antiplatelet agent” (Mitsubishi Tanabe Pharma Corporation, priority 2009, dated 2017).

Assay type in all cases: cell-based
What all share (details): Cavia porcellus, guinea pig PRP

Assay [1] concerns Collagen-Induced Platelet Aggregation. Kind of assay: Platelet aggregation inhibitory activity: collagen-induced platelet aggregation in platelet rich plasma. A digest of the protocol:
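Guinea-pig citrated platelet-rich plasma incubated with compound 1 min at 37° C, stirred 1 min, then aggregation induced with collagen and measured by light transmittance, platelet-poor plasma set as 100%. Aggregation rates at each concentration gave the IC50.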

Assay [2] concerns Ristocetin-Induced Platelet Aggregation. Nature of the assay: Platelet aggregation inhibitory activity: ristocetin-induced platelet aggregation in platelet rich plasma. A digest of the protocol: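 Guinea pig citrated platelet-rich plasma preincubated with compound at 37 °C for 1 min, stirred 1 min, then aggregation induced with ristocetin. Light transmittance measured with PPP set as 100%. IC50 derived from aggregation rates across compound concentrations.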

The subject of assay [3] is ADP-Induced Platelet Aggregation. Nature of the assay: Platelet aggregation inhibitory activity: ADP-induced platelet aggregation in platelet rich plasma. On the procedure: A blood of a guinea pig was sampled by using a 1/10 volume of a 3.8% sodium citrate as a platelet aggregation inhibitor, and a platelet rich plasma (PRP) was separated by centrifuging the blood sample at 1100 rpm for 10 min. After fractionating the PRP in the upper layer, the lower layer was centrifuged at 3000 rpm for 10 min to fractionate the platelet poor plasma (PPP). To 100 μL of PRP, a 1 μL solution of each compound was added, and after still standing at 37° C. for 1 min, the mixture was stirred at 37° C. for 1 min by a stirrer. Then, 11 μL of collagen, ristocetin, or ADP was added thereto to induce the platelet aggregation. The platelet aggregation ability was measured by using the mCM hematolaser 313M (L-M-S Inc.). Based on the assumption that a light transmittance of PPP corresponds to a 100% coagulation value, an aggregation rate at each concentration of the compound was determined, then, an IC50 value was calculated therefrom.
[Platelet Aggregation Inhibitory Activities: ADP-Induced Platelet Aggregation]

pIC50: −log10 of the molar value. Some results are limits rather than exact numbers.

As usually defined, the pIC50 is the IC50 on a negative log10 scale, so that one unit is a factor of ten. A low value points to a large IC50. With `COc1ccc(-n2c(-c3ccccn3)nc3cc(C(F)(F)F)ccc32)nn1` [Example 1, 1-(6-methoxypyridazin-3-yl)-2-pyridin-2-yl-5-(trifluoromethyl)-1H-benzimidazole], the pIC50 in assay [1] is 7.48; in assay [2], 7.00; in assay [3] it was less than 5.00.
For `COc1ccc(-n2c(-c3ccccn3)nc3cc(OC(F)(F)F)ccc32)nn1` [Example 3, 1-(6-methoxypyridazin-3-yl)-2-pyridin-2-yl-5-(trifluoromethoxy)-1H-benzimidazole], in that order: 7.49, 7.49 and less than 5.00.
As to `COc1ccc(-n2c(-c3ccc(F)cn3)nc3cc(C(F)(F)F)cnc32)cn1` [Example 4, 2-(5-fluoropyridin-2-yl)-3-(6-methoxypyridin-3-yl)-6-(trifluoromethyl)-3H-imidazo[4,5-b]pyridine], the pIC50 in assay [1] was 7.68; in assay [2], 7.62; in assay [3], less than 5.00.
For `COc1ccc(-n2c(-c3ccc(C#N)cn3)nc3cc(C(F)(F)F)ccc32)nn1` [Example 7, 6-[1-(6-methoxypyridazin-3-yl)-5-(trifluoromethyl)-1H-benzimidazole-2-yl]nicotinonitrile], in that order: 7.60, 7.22 and less than 5.00.
Regarding `COc1ccc(-n2c(-c3ccccn3)nc3cc(C(F)(F)F)cnc32)cn1` [Example 13, 3-(6-methoxypyridin-3-yl)-2-pyridin-2-yl-6-(trifluoromethyl)-3H-imidazo[4,5-b]pyridine], the pIC50 in assay [1] is 7.38; in assay [2], 7.39; in assay [3], less than 5.00.
With `COc1ccc(-n2c(-c3ccccn3)nc3cc(C(F)(F)F)ccc32)cn1` [Example 14, 1-(6-methoxypyridin-3-yl)-2-pyridin-2-yl-5-(trifluoromethyl)-1H-benzimidazole], the pIC50 in assay [1] was 6.70; in assay [3], less than 5.00.
In the case of `COc1ccc(-n2c(-c3ccc(Cl)cn3)nc3cc(C(F)(F)F)ccc32)cn1` [Example 36, 2-(5-chloropyridin-2-yl)-1-(6-methoxypyridin-3-yl)-5-(trifluoromethyl)-1H-benzimidazole], the results for the negative-log IC50 (pIC50) in assay [1], in assay [2] and in assay [3] were 7.31, 6.74 and less than 5.00, respectively.
On to `COc1ccc(-n2c(-c3ccccn3)nc3cc(OC(F)(F)F)ccc32)cn1` [Example 40, 1-(6-methoxypyridin-3-yl)-2-pyridin-2-yl-5-(trifluoromethoxy)-1H-benzimidazole], for which the pIC50 was 6.48 in assay [1], 6.77 in assay [2] and less than 5.00 in assay [3].
Taken in the same sequence, the figures for `COc1ccc(-n2c(-c3ccn(C)n3)nc3cc(C(F)(F)F)ccc32)nn1` [Example 52, 1-(6-methoxypyridazin-3-yl)-2-(1-methyl-1H-pyrazol-3-yl)-5-(trifluoromethyl)-1H-benzimidazole] were 7.27, 7.39 and less than 5.00.
For `COc1ccc(-n2c(-c3ccc(F)cn3)nc3cc(C(F)(F)F)ccc32)nn1` [Example 62, 2-(5-fluoropyridin-2-yl)-1-(6-methoxypyridazin-3-yl)-5-(trifluoromethyl)-1H-benzimidazole], in that order: 7.77, 7.57 and less than 5.00.
For `COc1ccc(-n2c(-c3ccc(F)cn3)nc3cc(OC(F)(F)F)ccc32)nn1` [Example 71, 2-(5-fluoropyridin-2-yl)-1-(6-methoxypyridazin-3-yl)-5-(trifluoromethoxy)-1H-benzimidazole], in that order: 7.11, 7.37 and less than 5.00.
With `COc1ccc(-n2c(-c3cocn3)nc3cc(C(F)(F)F)ccc32)nn1` [Example 88, 1-(6-methoxypyridazin-3-yl)-2-(1,3-oxazol-4-yl)-5-(trifluoromethyl)-1H-benzimidazole], the pIC50 in assay [1] was 6.92; in assay [2] it was 7.10; in assay [3], less than 5.00.
For `COc1ccc(-n2c(-c3ccccn3)nc3cc(OC(F)(F)F)cnc32)cn1` [Example 147, 3-(6-methoxypyridin-3-yl)-2-pyridin-2-yl-6-(trifluoromethoxy)-3H-imidazo[4,5-b]pyridine], in that order: 7.59, 7.89 and less than 5.00.
Turning to `COc1ccc(-n2c(-c3cn(C)nn3)nc3cc(C(F)(F)F)cnc32)cn1` [Example 160, 3-(6-methoxypyridin-3-yl)-2-(1-methyl-1H-1,2,3-triazol-4-yl)-6-(trifluoromethyl)-3H-imidazo[4,5-b]pyridine], the pIC50 is 6.79 in assay [1], 6.79 in assay [2] and less than 5.00 in assay [3].
`COc1ccc(-n2c(-c3cn(C)nn3)nc3cc(OC(F)(F)F)ccc32)nn1` [Example 167, 1-(6-methoxypyridazin-3-yl)-2-(1-methyl-1H-1,2,3-triazol-4-yl)-5-(trifluoromethoxy)-1H-benzimidazole]: the pIC50 in assay [1] is 6.80; in assay [2] it was 6.87; in assay [3], less than 5.00.
Taken in the same sequence, the figures for `COc1cnc(-n2c(-c3cn(C)cn3)nc3cc(C(F)(F)F)cnc32)cn1` [Example 169, 3-(5-methoxypyrazine-2-yl)-2-(1-methyl-1H-imidazol-4-yl)-6-(trifluoromethyl)-3H-imidazo[4,5-b]pyridine] were 6.91, 6.83 and less than 5.00.
`COc1ccc(-n2c(-c3ccccn3)nc3cc(OCC(C)C)cnc32)cn1` [Example 174, 6-isobuthoxy-3-(6-methoxypyridin-3-yl)-2-pyridin-2-yl-3H-imidazo[4,5-b]pyridine]: the pIC50 in assay [1] is 7.08; in assay [2] it was 7.06.
For `COc1ccc(-n2c(-c3ccccn3)nc3cc(OCC(F)(F)F)cnc32)cn1` [Example 175, 3-(6-methoxypyridin-3-yl)-2-pyridin-2-yl-6-(2,2,2-trifluoroethoxy)-3H-imidazo[4,5-b]pyridine], in that order: 7.12 and 7.12.
Turning to `COc1ccc(-n2c(-c3ccccn3)nc3cc(OC(C)C(F)(F)F)cnc32)cn1` (centres unmarked) [Example 176, 3-(6-methoxypyridin-3-yl)-2-pyridin-2-yl-6-(2,2,2-trifluoro-1-methylethoxy)-3H-imidazo[4,5-b]pyridine], the negative-log IC50 (pIC50) in assay [1] was 7.26; in assay [2], 7.20.
Regarding `COc1ccc(-n2c(-c3ccc(F)cn3)nc3cc(OC(F)(F)F)cnc32)cn1` [Example 177, 2-(5-fluoropyridin-2-yl)-3-(6-methoxypyridin-3-yl)-6-(trifluoromethoxy)-3H-imidazo[4,5-b]pyridine], the pIC50 in assay [1] is 7.68; in assay [2], 7.96; in assay [3], less than 5.00.
Taken in the same sequence, the figures for `COc1ccc(-n2c(-c3ccc(F)cn3)nc3cc(OC(F)F)cnc32)cn1` [Example 178] were 7.03, 7.33 and less than 5.00.
Taken in the same sequence, the figures for `COc1ccc(-c2c(-c3ccccn3)nc3cc(C(F)(F)F)cnn23)cn1` [Example 179, 3-(6-methoxypyridin-3-yl)-2-pyridin-2-yl-7-(trifluoromethyl)imidazo[1,2-b]pyridazine] were 7.12, 7.47 and less than 5.00.
Turning to `COc1ccc(-c2c(-c3ccccn3)nn3cc(C(F)(F)F)cnc23)cn1` [Example 180, 3-(6-methoxypyridin-3-yl)-2-pyridin-2-yl-6-(trifluoromethyl)pyrazolo[1,5-a]pyrimidine], the figures for the pIC50 in assay [1], in assay [2] and in assay [3] were 7.26, 7.85 and less than 5.00, respectively.
Regarding `COc1ccc(-c2c(-c3ccc(F)cn3)nc3cc(C(F)(F)F)cnn23)cn1` [Example 181, 2-(5-fluoropyridin-2-yl)-3-(6-methoxypyridin-3-yl)-7-(trifluoromethyl)imidazo[1,2-b]pyridazine], the pIC50 in assay [1] is 7.48; in assay [2], 7.57; in assay [3], less than 5.00.
On to `COc1ccc(-n2c(-c3ccccn3)cc3cc(C(F)(F)F)ccc32)cn1` [Example 182, 1-(6-methoxypyridin-3-yl)-2-pyridin-2-yl-5-(trifluoromethyl)-1H-indole], for which the pIC50 in assay [1] is 6.94; in assay [3], less than 5.00.
Turning to `COc1ccc(-n2c(-c3ccccn3)cc3cc(C(F)(F)F)cnc32)cn1` [Example 183, 1-(6-methoxypyridin-3-yl)-2-pyridin-2-yl-5-(trifluoromethyl)-1H-pyrrolo[2,3-b]pyridine], the pIC50 is 7.62 in assay [1], 8.05 in assay [2] and less than 5.00 in assay [3].
As to `COc1ccc(-n2c(-c3ccc(F)cn3)cc3cc(C(F)(F)F)cnc32)cn1` [Example 184, 2-(5-fluoropyridin-2-yl)-1-(6-methoxypyridin-3-yl)-5-(trifluoromethyl)-1H-pyrrolo[2,3-b]pyridine], the pIC50 is 7.77 in assay [1] and less than 5.00 in assay [3].
Taken in the same sequence, the figures for `COc1ccc(-c2c3ccc(C(F)(F)F)cc3nn2-c2ccc(F)cn2)cn1` [Example 185, 2-(5-fluoropyridin-2-yl)-3-(6-methoxypyridin-3-yl)-6-(trifluoromethyl)-2H-indazole] were 7.15 and less than 5.00.
